Data on 2 molecules can be found in publication PMC4529401 (Pharmaceutical research, 2015).

For assay [1], the target named is T1, human OCT2 (Homo sapiens, UniProt O15244).
T1 sequence (O15244 1-555): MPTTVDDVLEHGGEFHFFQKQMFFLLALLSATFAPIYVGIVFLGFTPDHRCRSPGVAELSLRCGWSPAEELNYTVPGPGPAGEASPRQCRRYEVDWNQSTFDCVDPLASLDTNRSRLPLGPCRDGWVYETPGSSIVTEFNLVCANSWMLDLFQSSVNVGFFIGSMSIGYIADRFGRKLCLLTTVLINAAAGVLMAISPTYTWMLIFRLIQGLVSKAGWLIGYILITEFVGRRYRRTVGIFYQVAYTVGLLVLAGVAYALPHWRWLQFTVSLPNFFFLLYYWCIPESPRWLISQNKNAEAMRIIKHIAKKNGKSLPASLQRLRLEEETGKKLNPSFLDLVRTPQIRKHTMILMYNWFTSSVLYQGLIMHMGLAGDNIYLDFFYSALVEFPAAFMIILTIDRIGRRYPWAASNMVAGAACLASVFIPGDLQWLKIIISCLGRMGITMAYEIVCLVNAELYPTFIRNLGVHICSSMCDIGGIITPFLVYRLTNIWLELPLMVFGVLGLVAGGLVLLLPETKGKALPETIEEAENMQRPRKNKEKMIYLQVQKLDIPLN
Put plainly: Transport of TEA and MPP in CHO cells that stably expressed human OCT2. In kind it is cell-based. The conditions noted are these: for true Kt for OCT2-mediated transport (suggested): authors' estimate in the discussion; for Ktapp of uptake: 30 sec uptakes.

For assay [2], the target named is T1, human OCT2. The conditions noted are these: ref Morales & Wright, unpublished; cited from earlier work.
Assay [3] concerns the target T1, human OCT2. Put plainly: Literature kinetic parameters for OCT2-mediated transport, cells. It is filed as cell-based. The following applies: median of the values in Table I.
Where [4] appears, read: OCT2 knockdown cells (shRNA #6), paired studies, three (TEA) or four (MPP).
Setting [5] is: control (fully expressing) cells, paired studies, three (TEA) or four (MPP).
[6] abbreviates: control (unshaken), 96 well plate, n=3.
Setting [7] is: shaken (reciprocal, 13 Hz), 96 well plate, n=3.

Like-named read-outs stand apart in the source and are kept apart here.

Turning to `C[n+]1ccc(-c2ccccc2)cc1` [MPP, 1-Methyl-4-phenylpyridinium], on human OCT2 [1] (24 well plate, flat-bed orbital shaker 300 rpm (5 Hz), [3H] substrate, P < 0.05), the “increase of 30 sec uptake by shaking” value is given as 50%. The Jmax on human OCT2 [1] (setting [4]) is listed as 6.1 ± 1.2 pmol cm^−2 min^−1; at human OCT2 [1] (Table I, present study) it was 35 pmol cm^−2 min^−1; at human OCT2 [1] (setting [5]) it was 64.7 ± 16.6 pmol cm^−2 min^−1; on human OCT2 [1] (setting [6]), 35.4 ± 1.4 pmol cm^−2 min^−1; on human OCT2 [1] (setting [7]), 37.4 ± 2.5 pmol cm^−2 min^−1. The results for the “apparent Kt” value on human OCT2 [1] (setting [4]) and at human OCT2 [1] (setting [5]) were 3.8 ± 0.5 µM and 16.6 ± 4.0 µM, respectively. Also, the Ktapp is 3.3 ± 0.9 µM on human OCT2 [1] (OCT2 knockdown cells, six paired experiments (n = 6)) and 9 µM on human OCT2 [1] (Table I, present study). The “true Kt for OCT2-mediated transport (suggested)” value on human OCT2 [1] is listed as 1 to 2 µM. Besides, at human OCT2 [1] (calculated from present study Jmax and a 1500 µm UWL), the “Winne ‘bias’” value is reported as 7 µM. Besides, the “maximum transport rates, fold lower than in parental OCT2-expressing cells” value at human OCT2 [1] (cells with reduced OCT2 expression (RNAi)) stood at 11 fold. Further, the Ktapp of uptake on human OCT2 [1] (setting [6]) came to 6.5 ± 0.4 µM; on human OCT2 [1] (setting [7]), 4.5 ± 0.5 µM. Besides, the “estimated true Kt” value at human OCT2 [1] (intercept of the Jmax vs Ktapp relationship (linear regression)) is recorded as 1.8 ± 1.6 µM. Also, the “reduction in the 15 sec uptake in OCT2 knockdown cells” value on human OCT2 [1] (knockdown (shRNA #6) vs control cells, […] [14C]TEA plus 1.0 nM [3H]MPP) was 55%. Moreover, the “reduction of Jmax in OCT2 knockdown cells” value at human OCT2 [1] (knockdown vs control cells) is 90%.

Turning to `CN(C)C(=N)N=C(N)N` [Metformin], on human OCT2 [2], the Jmax is reported as 265 pmol cm^−2 min^−1 and the Ktapp is listed as 378 µM. Besides, on human OCT2 [1], the “true Kt for OCT2-mediated transport (suggested)” value was ~ 1000 µM. On human OCT2 [3], the “median Jmax” value is listed as ~ 350 pmol cm^−2 min^−1.
